# Calls of active or inactive are those of the source. No cut-off for these calls is given here.
# Tests used:
# [1] = test system: Enterobacter cloacae; assay: Inhibition of Enterobacter cloacae Metallo-beta-lactamase IMP-1
# [2] = test system: Klebsiella pneumoniae; assay: Inhibition of Klebsiella pneumoniae beta Metallo-beta-lactamase IMP-28
# [3] = Binding affinity to Zinc incubated for 2 hrs measured by isothermal titration calorimetric assay
# [4] = test system: Enterobacter cloacae; assay: Inhibition of Metallo-beta-lactamase IMP-1 in Enterobacter cloacae clinical isolate assessed as MIC for meropenem antibacterial activity at 32 ug/ml (Rvb =16 ug/ml); details: dose 32.0 µg/ml
# [5] = test system: Enterobacter cloacae; assay: Inhibition of Metallo-beta-lactamase IMP-1 in Enterobacter cloacae clinical isolate assessed as MIC for meropenem antibacterial activity at 64 ug/ml (Rvb =16 ug/ml); details: dose 64.0 µg/ml
# [6] = test system: Enterobacter cloacae; assay: Inhibition of Metallo-beta-lactamase IMP-1 in Enterobacter cloacae clinical isolate assessed as MIC for meropenem antibacterial activity at 128 ug/ml (Rvb =16 ug/ml); details: dose 128.0 µg/ml
# [7] = test system: Klebsiella pneumoniae; assay: Inhibition of Metallo-beta-lactamase IMP-28 in Klebsiella pneumoniae clinical isolate assessed as MIC for meropenem antibacterial activity at 32 ug/ml (reference value: 4 ug/ml); details: dose 32.0 µg/ml
# [8] = test system: Klebsiella pneumoniae; assay: Inhibition of Metallo-beta-lactamase IMP-28 in Klebsiella pneumoniae clinical isolate assessed as MIC for meropenem antibacterial activity at 64 ug/ml (reference value: 4 ug/ml); details: dose 64.0 µg/ml
# [9] = test system: Klebsiella pneumoniae; assay: Inhibition of Metallo-beta-lactamase IMP-28 in Klebsiella pneumoniae clinical isolate assessed as MIC for meropenem antibacterial activity at 128 ug/ml (reference value: 4 ug/ml); details: dose 128.0 µg/ml
# [10] = test system: Escherichia coli; assay: Inhibition of Metallo-beta-lactamase VIM-2 in Escherichia coli clinical isolate assessed as MIC for meropenem antibacterial activity at 32 ug/ml (reference value: 8 ug/ml); details: dose 32.0 µg/ml
# [11] = test system: Escherichia coli; assay: Inhibition of Metallo-beta-lactamase VIM-2 in Escherichia coli clinical isolate assessed as MIC for meropenem antibacterial activity at 64 ug/ml (reference value: 8 ug/ml); details: dose 64.0 µg/ml
# [12] = test system: Escherichia coli; assay: Inhibition of Metallo-beta-lactamase VIM-2 in Escherichia coli clinical isolate assessed as MIC for meropenem antibacterial activity at 128 ug/ml (reference value: 8 ug/ml); details: dose 128.0 µg/ml
# [13] = test system: Escherichia coli; assay: Inhibition of Metallo-beta-lactamase NDM-1 in Escherichia coli clinical isolate assessed as MIC for meropenem antibacterial activity at 32 ug/ml (reference value: 64 ug/ml); details: dose 32.0 µg/ml
# [14] = test system: Escherichia coli; assay: Inhibition of Metallo-beta-lactamase NDM-1 in Escherichia coli clinical isolate assessed as MIC for meropenem antibacterial activity at 64 ug/ml (reference value: 64 ug/ml); details: dose 64.0 µg/ml
# [15] = test system: Escherichia coli; assay: Inhibition of Metallo-beta-lactamase NDM-1 in Escherichia coli clinical isolate assessed as MIC for meropenem antibacterial activity at 128 ug/ml (reference value: 64 ug/ml); details: dose 128.0 µg/ml
# [16] = test system: Enterobacter cloacae; assay: Antibacterial activity against beta-lactamase IMP1 producing Enterobacter cloacae clinical isolate measured upto 128 ug/ml; assay type: functional, organism-based
# [17] = test system: Klebsiella pneumoniae; assay: Antibacterial activity against beta-lactamase IMP-28 producing Klebsiella pneumoniae clinical isolate measured upto 128 ug/ml; assay type: functional, organism-based
# [18] = test system: Escherichia coli; assay: Antibacterial activity against beta-lactamase VIM2 producing Escherichia coli clinical isolate measured upto 128 ug/ml; assay type: functional, organism-based
# [19] = Inhibition of Enterobacter cloacae IMP-1 using nitrocefin chromogenic substrate measured after 15 to 60 min at 25 degC by microplate reader
# [20] = Inhibition of Klebsiella pneumoniae beta-lactamase IMP-28 using nitrocefin chromogenic substrate measured after 15 to 60 min at 25 degC by microplate reader
# [21] = Inhibition of Escherichia coli beta-lactamase VIM-2 using nitrocefin chromogenic substrate measured after 15 to 60 min at 25 degC by microplate reader
# [22] = test system: Klebsiella pneumoniae; assay: Substrate activity at Klebsiella pneumoniae beta-lactamase IMP-28 assessed as compound hydrolysis by measuring Km by Michaelis-Menten analysis
# [23] = test system: Klebsiella pneumoniae; assay: Substrate activity at Klebsiella pneumoniae beta-lactamase IMP-28 assessed as compound hydrolysis by measuring Kcat by Michaelis-Menten analysis
# [24] = test system: Klebsiella pneumoniae; assay: Substrate activity at Klebsiella pneumoniae beta-lactamase IMP-28 assessed as compound hydrolysis by measuring Kcat/Km by Michaelis-Menten analysis
# [25] = test system: Enterobacter cloacae; assay: Inhibition of Metallo-beta-lactamase IMP-1 in Enterobacter cloacae clinical isolate assessed as fold reduction in meropenem MIC at 32 ug/ml; details: dose 32.0 µg/ml
# [26] = test system: Enterobacter cloacae; assay: Inhibition of Metallo-beta-lactamase IMP-1 in Enterobacter cloacae clinical isolate assessed as fold reduction in meropenem MIC at 64 ug/ml; details: dose 64.0 µg/ml
# [27] = test system: Enterobacter cloacae; assay: Inhibition of Metallo-beta-lactamase IMP-1 in Enterobacter cloacae clinical isolate assessed as fold reduction in meropenem MIC at 128 ug/ml; details: dose 128.0 µg/ml
# [28] = test system: Klebsiella pneumoniae; assay: Inhibition of Metallo-beta-lactamase IMP-28 in Klebsiella pneumoniae clinical isolate assessed as fold reduction in meropenem MIC at 32 ug/ml; details: dose 32.0 µg/ml
# [29] = test system: Klebsiella pneumoniae; assay: Inhibition of Metallo-beta-lactamase IMP-28 in Klebsiella pneumoniae clinical isolate assessed as fold reduction in meropenem MIC at 64 ug/ml; details: dose 64.0 µg/ml
# [30] = test system: Klebsiella pneumoniae; assay: Inhibition of Metallo-beta-lactamase IMP-28 in Klebsiella pneumoniae clinical isolate assessed as fold reduction in meropenem MIC at 128 ug/ml; details: dose 128.0 µg/ml
# [31] = test system: Escherichia coli; assay: Inhibition of Metallo-beta-lactamase VIM-2 in Escherichia coli clinical isolate assessed as fold reduction in meropenem MIC at 32 ug/ml; details: dose 32.0 µg/ml
# [32] = test system: Escherichia coli; assay: Inhibition of Metallo-beta-lactamase VIM-2 in Escherichia coli clinical isolate assessed as fold reduction in meropenem MIC at 64 ug/ml; details: dose 64.0 µg/ml
# [33] = test system: Escherichia coli; assay: Inhibition of Metallo-beta-lactamase VIM-2 in Escherichia coli clinical isolate assessed as fold reduction in meropenem MIC at 128 ug/ml; details: dose 128.0 µg/ml
# [34] = test system: Escherichia coli; assay: Inhibition of Metallo-beta-lactamase NDM-1 in Escherichia coli clinical isolate assessed as fold reduction in meropenem MIC at 32 ug/ml; details: dose 32.0 µg/ml
# [35] = test system: Escherichia coli; assay: Inhibition of Metallo-beta-lactamase NDM-1 in Escherichia coli clinical isolate assessed as fold reduction in meropenem MIC at 64 ug/ml; details: dose 64.0 µg/ml
# [36] = test system: Escherichia coli; assay: Inhibition of Metallo-beta-lactamase NDM-1 in Escherichia coli clinical isolate assessed as fold reduction in meropenem MIC at 128 ug/ml; details: dose 128.0 µg/ml
# [37] = test system: Escherichia coli; assay: Antibacterial activity against beta-lactamase NDM1 producing Escherichia coli clinical isolate measured upto 128 ug/ml; assay type: functional, organism-based
smiles,measurement,setting,value
O=C(Cc1ccccc1)N[C@H](C(=O)O)[C@@H]1N=C(C(=O)O)C(CSC(C(=O)O)c2ccccc2)CS1 (some centres not stated),inhibition,[1],Active
same,inhibition,[2],Active
same,Kd,[3],9.67 µM
O=C(Cc1ccccc1)N[C@@H]1C(=O)N2C(C(=O)O)=C(CSCCc3ccccc3)CS[C@H]12,MIC,[4],8 µg/mL
same,MIC,[5],8 µg/mL
same,MIC,[6],8 µg/mL
same,MIC,[7],0.5 µg/mL
same,MIC,[8],0.25 µg/mL
same,MIC,[9],0.25 µg/mL
same,MIC,[10],8 µg/mL
same,MIC,[11],4 µg/mL
same,MIC,[12],4 µg/mL
same,MIC,[13],32 µg/mL
same,MIC,[14],16 µg/mL
same,MIC,[15],16 µg/mL
same,Activity,[16],inactive
same,Activity,[17],inactive
same,Activity,[18],inactive
same,IC50,[19],2.2 µM
same,IC50,[20],4.3 µM
same,IC50,[21],49 µM
same,Km,[22],83.3 µM
same,kcat,[23],6.12 s⁻¹
same,kcat/Km,[24],73000 M⁻¹ s⁻¹
same,fold change (FC),[25],2
same,fold change (FC),[26],2
same,fold change (FC),[27],2
same,fold change (FC),[28],8
same,fold change (FC),[29],16
same,fold change (FC),[30],16
same,fold change (FC),[31],1
same,fold change (FC),[32],2
same,fold change (FC),[33],2
same,fold change (FC),[34],2
same,fold change (FC),[35],4
same,fold change (FC),[36],4
same,Activity,[37],inactive

# Source: ChEMBL document CHEMBL5034010, “Novel Cephalosporin Conjugates Display Potent and Selective Inhibition of Imipenemase-Type Metallo-β-Lactamases” (J Med Chem, 2021)
